Here are results for 4 compounds from US9457029B2, “Treatment of genotyped diabetic patients with DPP-IV inhibitors such as linagliptin” (Boehringer Ingelheim International GmbH, priority 2009, dated 2016).

Data set [1] deals with patients with type 2 diabetes mellitus and insufficient glycemic control. The format is in vivo, human. As for the experimental part:
A multi-center, 24-week, randomized, double-blind, placebo-controlled, parallel group study investigates the efficacy and safety of initial combination therapy with the DPP-4 inhibitor linagliptin (LI) and pioglitazone (PIO). […] Mean baseline characteristics (HbA1c 8.6%; fasting plasma glucose [FPG] 190 mg/dL; age 57.5 yrs; BMI 29.0 kg/m2) are similar between the groups. […] After 24 weeks of treatment, the adjusted mean change in HbA1c for the patients in the LI+ PIO group (full analysis set, last observation carried forward) is −1.06% (standard error (SE)±0.06). The difference in the adjusted mean HbA1c for the LI+ PIO group compared with PBO+PIO is −0.51% (p<0.0001; 95% confidence interval (CI), −0.71, −0.30). […] The proportion of patients that experienced at least one adverse event (AE) is similar for both LI+ PIO and PBO+PIO groups (136, 52.5% vs. 53.1%, respectively). Hypoglycemia is rare, occurring in 3 patients (1.2%) in the LI+ PIO group and none in the PBO+PIO group. All hypoglycemic events are of mild intensity.

In data set [2] the test system is the diabetic. The note with it: metformin on its own; cited from earlier work.
The test system of data set [3] is inadequately controlled, metformin-treated type 2 diabetic patients. The experiment in a line: 12-week randomized, double-blind study of BI 1356 add-on to metformin vs placebo or open label glimepiride. The format is in vivo, human. As for the experimental part:
Efficacy and safety of BI 1356 (1, 5, or 10 mg qd), a potent and selective dipeptidyl peptidase-4 (DPP-4) inhibitor, was examined in inadequately controlled, metformin-treated (MET, ≧1 g daily) type 2 diabetic patients (T2DM; HbA1c at baseline 7.5-10.0%). Effects were compared to add-on of placebo (PBO) or of open label glimepiride (GLIM; 1 to 3 mg qd) in a 12-week randomized, double-blind study. Antidiabetic medication other than metformin was washed out for 6 weeks (34.7% of the patients).
The primary endpoint was change from baseline in HbA1c, adjusted for prior antidiabetic medication. 333 patients (mean baseline HbA1c 8.3%; fasting plasma glucose [FPG] 185 mg/dL) were randomized to BI 1356, PBO or open-label GLIM. […] Reductions in FPG from baseline to Week 12 with BI 1356 were statistically significant (1 mg, −19 mg/dL; 5 mg, −35 mg/dL; 10 mg, −30 mg/dL). […] For this dose, >80% DPP-4 inhibition at trough in >80% of the patients at week 12 was achieved.
In total, 106 patients (43.1%) experienced adverse events (AEs) with similar incidences across all treatments. Most frequently reported episodes were nasopharyngitis (7.5%), diarrhoea (3.3%), and nausea (3.0%). […] Ten patients (3.7%) experienced serious AEs but none of these events were considered drug-related.

Data set [4] deals with Japanese patients with type 2 diabetes mellitus. The settings on record: VB 0.2 mg tid.
Setting [5] is: 5 mg LI plus 30 mg PIO qd or 30 mg PIO plus placebo qd, 24 weeks.

For the compound `CCc1ccc(CCOc2ccc(CC3SC(=O)NC3=O)cc2)nc1` (stereo not drawn) [PBO+PIO, pioglitazone], in data set [1] (setting [5]), the “patients achieving a reduction in HbA1c of ≧0.5%” value turned out to be 50.8% and the “patients achieving a target HbA1c of <7%” value was found to be 30.5%. Further, in data set [1] (in vivo), the “hypoglycemia, number of patients” value was “none” and the “proportion of patients that experienced at least one adverse event (AE)” value came to 53.1%.

Consider `CN(C)C(=N)N=C(N)N` [metformin], for which, in data set [2], the “average improvement in the HbA1c value” is recorded as 1.0-1.5%.

`CCC1=C(C)CN(C(=O)NCCc2ccc(S(=O)(=O)NC(=O)N[C@H]3CC[C@H](C)CC3)cc2)C1=O` [GLIM, glimepiride, reference compound]: in data set [3] (GLIM 1 to 3 mg qd add-on to metformin, 12 weeks), the “drug-related hypoglycaemia, number of patients” value was 3 patients. Moreover, the “mean PBO corrected reduction in HbA1c” value in data set [3] (open label GLIM 1 to 3 mg qd add-on to metformin, Week 12) is given as −0.90%.

Consider `OCC(CO)N[C@H]1C[C@](O)(CO)[C@@H](O)[C@H](O)[C@H]1O` [VB, voglibose, reference compound], for which, in data set [4] (26 weeks), the “proportion of patients whose HbA1c level lowered by ≧0.5%” value was determined as 37.7%. In addition, the “proportion of patients achieving HbA1c<7.0%” value in data set [4] (after 26 weeks) came to 22.2%.
